{"source": "patent US11123354B2", "about": "“Method for the treatment of osteoarthritis” (ABIOGEN PHARMA S.P.A., priority 2016, dated 2021)", "key": {"[1]": {"test_system": "OA rats (bilateral anterior cruciate ligament surgical resection)", "assay": "Histomorphometric evaluation of the cartilage area, OA rats by anterior cruciate ligament resection, monthly treatment", "type": "in vivo, Sprague Dawley rats", "conditions": "4 monthly i.a. doses", "description": "In this study, the efficacy of a treatment performed by monthly intra-articular administration of sodium chlodronate on male “Sprague Dawley” rats affected by OA was evaluated. The treatment involved 4 monthly doses of sodium chlodronate, followed by one month of follow-up.\nIn the experimental model, OA was induced in rats by bilateral anterior cruciate ligament surgical resection in both hind limbs.\nA volume of 50 μL of treatment solution, having a pH of about 4.5, as measured just before administration, was injected into the intra-articular cavity of each knee.\nThe study included 5 treatment groups, each consisting of 10 male rats, specifically two treatment groups consisting of OA rats, on which chlodronate doses of 8 and 12 mg/ml, corresponding to 0.4 and 0.6 mg/rat, were tested, and remaining three groups represented by untreated OA rats, operated but untreated Sham rats, and rats receiving placebo alone.\nDuring the treatment period, the animals were regularly checked in relation to the increase in body mass, food intake and general health conditions. Clinical and hematological analyses were performed at the end of the study. […]\nHistomorphometric quantitative measurements of the cartilage area were performed using Image-Pro Plus 4.1 software for windows (Media Cybernetics, Maryland, USA). […]"}, "[2]": {"test_system": "CTX-II (C-telopeptide of type II collagen)", "assay": "CTX-II final serum concentration, MIA-induced OA rats, weekly treatment", "type": "in vivo, Sprague Dawley rats", "description": "(§1) As an experimental model of OA induction, one involving the intra-articular administration of MIA (monosodium iodoacetate) was used.\n(§2) The rats were anesthetized by a gaseous mixture of isoflurane and oxygen, and maintained in a supine position. Once the infrapatellar ligament was identified by touch, a single intra-articular injection of monosodium iodoacetate (MIA) was performed in the right knee, after having shaved the skin of the area, while keeping the joint slightly flexed. The amount of MIA injected was equal to 1 mg dissolved in 50 μl of saline solution, having a pH of about 4.5, as measured just before administration. The joint of the left knee was instead injected with 50 μl of saline solution alone, and this represented the internal control.\n(§3) The treatment involved 4 weekly administrations of sodium chlodronate, followed by one week of follow-up.\n(§4) The study included 8 treatment groups, each consisting of 10 male Sprague Dawley rats, specifically five treatment groups consisting of OA rats, on which the chlodronate doses of 2, 10, 20, 30, and 40 mg/ml, corresponding to 0.1, 0.5, 1, 1.5, and 2 mg/rat, were tested, and the remaining three groups represented by untreated OA rats, operated but untreated Sham rats, and rats administered only with placebo at pH 4.5.\n(§5) During the treatment period, the animals were regularly checked in relation to the increase in body mass, food intake, and general health conditions. Clinical and hematological analyses were performed at the end of the study. The difference between the size of the edema in the two inflamed knees for all the observation groups, the final serum concentration of CTX-I (C-telopeptide of type I collagen), as a marker of bone turnover, and the final serum concentration of CTX-II (C-telopeptide of type II collagen), as a marker of cartilage turnover were investigated.\nConsidering that CTX-II (C-telopeptide of type II collagen) is a cartilage turnover marker and its concentration levels are proportional to the […], the measurement of CTX-II final serum concentration value is a measure of the treatment efficacy."}, "Sprague Dawley rats": {"test_system": "Sprague Dawley rats", "assay": "Local tolerability of repeated intra-articular injections", "type": "in vivo", "description": "With the aim to determine also the maximum dosages of chlodronate administrable in a single intra-articular injection, the local tolerability of intra-articular injections of sodium chlodronate, after repeated administration in the right knee of male and female Sprague Dawley rats, was investigated in this study.\nGroups consisting of 5 male rats and 5 female rats each were subjected to intra-articular administration of aqueous solutions comprising 4, 14 and 40 mg/ml of sodium chlodronate (corresponding to dosages of 0.2, 0.7, and 2 mg/rat).\nEach animal received a total of 12 intra-articular injections of chlodronate or placebo, administered as 3 injections per week (on Monday, Wednesday, and Friday) for 4 consecutive weeks. For the high dose group and the control group, the relative control groups with the same numerosity as the main groups were also provided.\nDuring the treatment period, the animals were regularly checked in relation to the increase in body mass, food intake, and general health conditions.\nAt the end of the study, hematological analyses, chemical-clinical analyses, urino-analysis, and necropsy were performed."}, "[3]": {"test_system": "CTX-I (C-telopeptide of type I collagen)", "assay": "CTX-I final serum concentration, MIA-induced OA rats, weekly treatment", "type": "in vivo, Sprague Dawley rats", "description": "as §1, §2, §3, §4, §5\nConsidering that CTX-I (C-telopeptide of type I collagen) is a bone turnover marker and its concentration levels are proportional to the osteoclastic activity, the measurement of CTX-I final serum concentration value is a measure of the treatment efficacy."}, "[4]": {"conditions": "4, 14 and 40 mg/ml, 12 i.a. injections (3 per week, 4 weeks)"}, "[5]": {"conditions": "repeated intra-articular administration, rats"}}, "data": [{"smiles": "O=P([O-])(O)C(Cl)(Cl)P(=O)([O-])O.[Na+].[Na+]", "note": "[Sodium Chlodronate, sodium chlodronate]", "values": [{"measurement": "Cartilage Area Average Value ± SEM", "setting": "[1]; 8 mg/ml (0.4 mg/rat)", "value": "486 ± 157.7"}, {"measurement": "Cartilage Area Average Value ± SEM", "setting": "[1]; 12 mg/ml (0.6 mg/rat)", "value": "435 ± 125.9"}, {"measurement": "CTX-II Value", "setting": "[2]; 2 mg/mL weekly i.a.", "value": 6.84, "unit": "pg/mL"}, {"measurement": "CTX-II Value", "setting": "[2]; 10 mg/mL weekly i.a.", "value": 6.48, "unit": "pg/mL"}, {"measurement": "CTX-II Value", "setting": "[2]; 20 mg/mL weekly i.a.", "value": 5.93, "unit": "pg/mL"}, {"measurement": "CTX-II Value", "setting": "[2]; 30 mg/mL weekly i.a.", "value": 5.67, "unit": "pg/mL"}, {"measurement": "CTX-II Value", "setting": "[2]; 40 mg/mL weekly i.a.", "value": 5.73, "unit": "pg/mL"}, {"measurement": "hematological analyses with differential leucocyte count and urinary analyses", "setting": "Sprague Dawley rats; [4]", "value": "no alterations due to the treatment"}, {"measurement": "necropsy examination", "setting": "Sprague Dawley rats; [4]", "value": "No abnormalities"}, {"measurement": "body weight and food consumption", "setting": "Sprague Dawley rats; 4, 14 and 40 mg/ml, 12 i.a. injections (3 per week, 4 weeks), all animals", "value": "normal"}, {"measurement": "mortality, behavioral or clinical changes related to the treatment", "setting": "Sprague Dawley rats; 4, 14 and 40 mg/ml, 12 i.a. injections (3 per week, 4 weeks), male and female rats", "value": "neither mortality nor behavioral or clinical changes"}, {"measurement": "renal effect / electrolyte serum concentration", "setting": "Sprague Dawley rats; females, highest dose (40 mg/ml, 2 mg/rat), 12 i.a. injections", "value": "slight renal suffering with an increase in electrolyte serum concentration"}, {"measurement": "ALP and ALT values in serum (initial hepatic suffering)", "setting": "Sprague Dawley rats; males, highest dose (40 mg/ml, 2 mg/rat), 12 i.a. injections", "value": "significant increase"}, {"measurement": "Maximum Tolerated Dose (MTD)", "setting": "Sprague Dawley rats; [5]", "value": 40, "unit": "mg/mL"}, {"measurement": "NOAEL dose (No Observed Adverse Effect Level)", "setting": "Sprague Dawley rats; [5]", "value": 14, "unit": "mg/mL"}, {"measurement": "CTX-I Value", "setting": "[3]; 2 mg/mL weekly i.a.", "value": 4.77, "unit": "pg/mL"}, {"measurement": "CTX-I Value", "setting": "[3]; 10 mg/mL weekly i.a.", "value": 4.87, "unit": "pg/mL"}, {"measurement": "CTX-I Value", "setting": "[3]; 20 mg/mL weekly i.a.", "value": 4.6, "unit": "pg/mL"}, {"measurement": "CTX-I Value", "setting": "[3]; 30 mg/mL weekly i.a.", "value": 4.36, "unit": "pg/mL"}, {"measurement": "CTX-I Value", "setting": "[3]; 40 mg/mL weekly i.a.", "value": 4.16, "unit": "pg/mL"}]}]}
